Results from patent US8399439B2, “2-methylene-19,26-dinor-(20S,22E,25R)-vitamin D analogs” (Wisconsin Alumni Research Foundation, priority 2008, dated 2013).

Assays:
vitamin D-deficient rats [1] = experiment: Bone calcium mobilization (serum calcium); format: in vivo, rat; details: rats on low calcium diet (0.02%), FIG. 4
Description: (§1) Male, weanling Sprague-Dawley rats were placed on Diet 11 (0.47% Ca) diet+AEK oil for one week followed by Diet 11 (0.02% Ca)+AEK oil for 3 weeks. The rats were then switched to a diet containing 0.47% Ca for one week followed by two weeks on a diet containing 0.02% Ca. Dose administration began during the last week on 0.02% calcium diet. Four consecutive ip doses were given approximately 24 hours apart. Twenty-four hours after the last dose, blood was collected from the severed neck and the concentration of serum calcium determined as a measure of bone calcium mobilization. The first 10 cm of the intestine was also collected for intestinal calcium transport analysis using the everted gut sac method.
Calcium mobilization from bone and intestinal calcium absorption in vitamin D-deficient animals. Using vitamin D-deficient rats on a low calcium diet (0.02%), the activities of SOR-1 and 1,25(OH)2D3 in intestine and bone were tested.

[2] = biological target: T1, full-length recombinant rat vitamin D receptor (Rattus norvegicus, UniProt P13053); experiment: Vitamin D receptor competitive binding with [3H]-1,25(OH)2D3; details: full-length recombinant rat VDR; FIG. 1; read-out: Ki, competition with [3H]-1,25(OH)2D3 for binding to vitamin D receptor
T1 construct: Full-length recombinant rat receptor was expressed in E. coli; His tag (C); made in house; host or cells: E. coli BL21 (DE3) Codon Plus RIL
T1 sequence (P13053 1-423): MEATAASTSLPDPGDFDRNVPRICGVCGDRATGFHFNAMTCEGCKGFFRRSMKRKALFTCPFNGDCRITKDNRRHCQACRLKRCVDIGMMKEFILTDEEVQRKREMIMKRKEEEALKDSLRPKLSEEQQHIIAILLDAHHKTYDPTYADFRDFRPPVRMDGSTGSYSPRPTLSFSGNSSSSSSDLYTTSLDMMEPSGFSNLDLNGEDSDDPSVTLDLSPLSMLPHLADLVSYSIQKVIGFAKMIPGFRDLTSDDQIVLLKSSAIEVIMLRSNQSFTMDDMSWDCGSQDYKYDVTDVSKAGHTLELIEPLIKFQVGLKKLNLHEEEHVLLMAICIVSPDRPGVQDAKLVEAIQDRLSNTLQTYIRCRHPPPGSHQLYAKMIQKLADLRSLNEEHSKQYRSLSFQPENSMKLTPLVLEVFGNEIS
Description: Full-length recombinant rat receptor was expressed in E. coli BL21 (DE3) Codon Plus RIL cells and purified to homogeneity using two different column chromatography systems. The first system was a nickel affinity resin that utilizes the C-terminal histidine tag on this protein. The protein that was eluted from this resin was further purified using ion exchange chromatography (S-Sepharose Fast Flow). Aliquots of the purified protein were quick frozen in liquid nitrogen and stored at −80° C. until use. For use in binding assays, the protein was diluted in TEDK50 (50 mM Tris, 1.5 mM EDTA, pH7.4, 5 mM DTT, 150 mM KCl) with 0.1% Chaps detergent. The receptor protein and ligand concentration were optimized such that no more than 20% of the added radiolabeled ligand was bound to the receptor.
Radiolabeled and unlabeled ligands were added to 100 mcl of the diluted protein at a final ethanol concentration of ≦10%, mixed and incubated overnight on ice to reach binding equilibrium. The following day, 100 mcl of hydroxylapatite slurry (50%) was added to each tube and mixed at 10-minute intervals for 30 minutes. The hydroxylapaptite was collected by centrifugation and then washed three times with Tris-EDTA buffer (50 mM Tris, 1.5 mM EDTA, pH 7.4) containing 0.5% Titron X-100. […] Total binding was determined from the tubes containing only radiolabeled ligand.

[3] = tested on: 24-hydroxylase (24Ohase) gene promoter; experiment: In vitro transcription assay, luciferase reporter in ROS 17/2.8 (bone) cells; format: cell-based; details: for EC50: ROS 17/2.8 cells, 24-hydroxylase promoter-luciferase, 16 h, FIG. 3, read-out: EC50, transcriptional activity in bone cells
Description: Transcription activity was measured in ROS 17/2.8 (bone) cells that were stably transfected with a 24-hydroxylase (24Ohase) gene promoter upstream of a luciferase reporter gene (Arbour et al., 1998). Cells were given a range of doses. Sixteen hours after dosing the cells were harvested and luciferase activities were measured using a luminometer.
RLU=relative luciferase units.

HL-60 cells = experiment: HL-60 cell differentiation (nitro blue tetrazolium reduction); format: cell-based, human; details: for EC50: HL-60 cells, 4 days, FIG. 2
Description: The study drugs were dissolved in ethanol and the concentrations determined using UV spectrophotometry. Serial dilutions were prepared so that a range of drug concentrations could be tested without changing the final concentration of ethanol (≦0.2%) present in the cell cultures.
Human promyelocytic leukemia (HL60) cells were grown in RPMI-1640 medium containing 10% fetal bovine serum. The cells were incubated at 37° C. in the presence of 5% CO2.
HL60 cells were plated at 1.2×10^5 cells/ml. Eighteen hours after plating, cells in duplicate were treated with drug. Four days later, the cells were harvested and a nitro blue tetrazolium reduction assay was performed (Collins et al., 1979; J. Exp. Med. 149:969-974). The percentage of differentiated cells was determined by counting a total of 200 cells and recording the number that contained intracellular black-blue formazan deposits. Verification of differentiation to monocytic cells was determined by measuring phagocytic activity (data not shown).

vitamin D-deficient rats [4] = experiment: Intestinal calcium transport (everted gut sac method); format: in vivo, rat; details: FIG. 5
Description: as §1
Intestinal calcium transport was evaluated in the same group of animals using the everted gut sac method (FIG. 5).

[5] = 2,340 pmol/day ip for 4 consecutive days
[6] = fold more active than 1α,25-dihydroxyvitamin D3
[7] = 780 pmol/day ip for 4 consecutive days

Row | SMILES | bone calcium mobilization (vitamin D-deficient rats [1]; [5]) | Ki [2] [nM] | EC50 [3] [nM] | transcriptional activity in bone cells relative to 1α,25-dihydroxyvitamin D3 [3, 6] | EC50 (HL-60 cells; Homo sapiens, 96 h) [nM] | HL-60 cell differentiation activity relative to 1α,25-dihydroxyvitamin D3 (HL-60 cells; [6]) | intestinal calcium transport activity (vitamin D-deficient rats [4]; [7]) | intestinal calcium transport activity (vitamin D-deficient rats [4]; [5]) | bone calcium mobilization (vitamin D-deficient rats [1]; [7]) | serum calcium levels (vitamin D-deficient rats [1]; all dosages) | EC50 (HL-60 cells) [nM]
1 | C=C1[C@H](O)CC(=C/C=C2\CCC[C@]3(C)[C@@H]([C@@H](C)/C=C/C[C@@H](C)O)CC[C@@H]23)C[C@H]1O [SOR-1, 2-methylene-19,26-dinor-(20S,22E,25R)-1α,25-dihydroxyvitamin D3] | did not result in any mobilization of bone calcium | 0.1 | 0.08 | about 3 times | 0.9 | about 3 times | almost no activity as compared to 1,25(OH)2D3 | activity similar to 1,25(OH)2D3 | – | – | –
2 | C=C1/C(=C\C=C2/CCC[C@]3(C)[C@@H]([C@H](C)CCCC(C)(C)O)CC[C@@H]23)C[C@@H](O)C[C@@H]1O [1α,25-dihydroxyvitamin D3, reference compound] | – | – | 0.2 | – | – | – | – | – | significant activity | increased serum calcium levels at all dosages | 2
